Measured values taken from patent US9314468B2, “Chemokine receptor modulators” (Altiris Therapeutics, Inc., priority 2008, dated 2016).

Each molecule was assayed against CXCR4 (Homo sapiens (Human), UniProt P61073) (assay: Functional calcium mobilization assay (SDF-1α induced)). Settings: CCRF-CEM, read-out: % inhibition at 1 μM.
CXCR4, sequence (P61073 whole entry): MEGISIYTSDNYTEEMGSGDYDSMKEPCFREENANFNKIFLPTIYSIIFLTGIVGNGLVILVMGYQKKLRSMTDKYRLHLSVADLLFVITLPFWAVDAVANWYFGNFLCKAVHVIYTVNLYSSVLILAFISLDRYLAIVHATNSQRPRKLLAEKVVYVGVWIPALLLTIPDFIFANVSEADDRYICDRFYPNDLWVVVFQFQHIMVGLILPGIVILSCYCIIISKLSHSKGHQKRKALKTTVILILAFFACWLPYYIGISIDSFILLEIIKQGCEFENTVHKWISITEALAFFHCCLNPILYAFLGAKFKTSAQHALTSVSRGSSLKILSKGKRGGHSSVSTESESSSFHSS
Format: cell-based
Method: Functional modulation of CXCR4 was determined by calcium mobilization assay using leukemic lymphoid CEM cells, which naturally express high levels of CXCR4. Generally, the assay is carried out as follows: Cells are grown in vitro to confluency. On the day of the assay, cells are removed from the incubator, culture medium removed and replaced with a calcium sensitive dye (Calcium3 assay kit; Molecular Devices, Sunnyvale, Calif.). The cells are allowed to dye load for 45-60 min at 37° C. in the cell culture incubator and then allowed to equilibrate to room temperature for no more than 15 min before assay.
Compound plates were generated containing up to 3% dimethyl sulfoxide in media kept at room temperature. Test compounds were added to the cells at a 1:3 dilution, and calcium mobilization was measured using a Flex Station fluorescence imager (Molecular Devices). This first read was used to determine direct agonist activation of the CXCR4 receptor by the test compounds. […] Full dose response curves were generated daily for SDF-1a to calculate IC50 concentrations. The IC50 values are reported. In cases, where one was not determined, a percent inhibition at the 1 μM concentration was extrapolated.
Functional calcium mobilization assay was conducted as described in Example 27.
With `NCCCN(Cc1nccc2c1[nH]c1ccccc12)C1CCCc2cccnc21` (stereo not drawn) the inhibition at 1 µM was 0%. In the case of `NCCN(Cc1nccc2c1[nH]c1ccccc12)C1CCCc2cccnc21` (stereo not drawn), the inhibition at 1 µM is reported as 0%. Work on `NC/C=C/CN(Cc1nccc2c1[nH]c1ccccc12)[C@H]1CCCc2cccnc21` yielded an inhibition at 1 µM of 20%. For `c1cnc2c(c1)CCCC2N(CCC1CCNCC1)Cc1nccc2c1[nH]c1ccccc12` (stereo not drawn), the inhibition at 1 µM was 55%. With `CCNC(=O)NCCCCN(Cc1nccc2c1[nH]c1ccccc12)[C@H]1CCCc2cccnc21` the inhibition at 1 µM was 0%. `c1cnc2c(c1)CCC[C@@H]2NCc1nccc2c1[nH]c1ccccc12` was tested, and the inhibition at 1 µM was 0%. `c1cnc2c(c1)CCCC2N(CCCCN(CC1CC1)CC1CC1)Cc1nccc2c1[nH]c1ccccc12` (stereo not drawn) was tested, and the inhibition at 1 µM was 0%. `CC(C)CN(CCCCN(Cc1nccc2c1[nH]c1ccccc12)[C@H]1CCCc2cccnc21)CC(C)C` was tested, and the inhibition at 1 µM was 23%. `NCc1ccc(CN(Cc2nccc3c2[nH]c2ccccc23)[C@H]2CCCc3cccnc32)cc1` showed an inhibition at 1 µM of 0%. With `O=C(NNc1ccccc1)c1ccc(CN(Cc2nccc3c2[nH]c2ccccc23)[C@H]2CCCc3cccnc32)cc1` the inhibition at 1 µM was 0%. Work on `NCCCCN(Cc1cn(Cc2ccccc2)nn1)C1CCCc2cccnc21` (stereo not drawn) yielded an inhibition at 1 µM of 45%. For `c1cnc2c(c1)CCCC2N(CCCCN1CCOCC1)Cc1nccc2c1[nH]c1ccccc12` (stereo not drawn), the inhibition at 1 µM was 49%. `CC(C)CN(Cc1nccc2c3ccccc3n(CCCN)c12)[C@H]1CCCc2cccnc21` gave an inhibition at 1 µM of 0%. `c1cnc2c(c1)CCC[C@@H]2N(Cc1ccc(N2CCNCC2)cc1)Cc1nccc2c1[nH]c1ccccc12` was tested, and the inhibition at 1 µM was 0%. Molecule `c1cnc2c(c1)CCCC2N(CCN1CCOCC1)Cc1nccc2c1[nH]c1ccccc12` (stereo not drawn) has an inhibition at 1 µM of 1%. `O=C(Cn1c2ccccc2c2ccnc(CN(Cc3ccc(CNCc4ccccn4)cc3)[C@H]3CCCc4cccnc43)c21)N1CCOCC1` gave an inhibition at 1 µM of 0%. Work on `CN(Cc1nccc2c3ccccc3n(CCCCN3C(=O)c4ccccc4C3=O)c12)[C@H]1CCCc2cccnc21` yielded an inhibition at 1 µM of 32%. Work on `c1cnc(NCCCCN(Cc2nccc3c2[nH]c2ccccc23)[C@H]2CCCc3cccnc32)nc1` yielded an inhibition at 1 µM of 0%. Molecule `CN(Cc1nccc2c3ccccc3n(Cc3cnn[nH]3)c12)[C@H]1CCCc2cccnc21` has an inhibition at 1 µM of 0%. With `c1ccc(CN(CCCCN(Cc2nccc3c2[nH]c2ccccc23)C2CCCc3cccnc32)Cc2ccccn2)nc1` (stereo not drawn) the inhibition at 1 µM was 27%. Work on `O=C(Cn1c2ccccc2c2ccnc(CN(C(=O)CCN3CCNCC3)[C@H]3CCCc4cccnc43)c21)N1CCOCC1` yielded an inhibition at 1 µM of 0%.

Same assay, conditions: CEM cells, SDF-1α challenge at EC80-EC90; read-out: Ca Flux IC50
With `CS(=O)(=O)N1CCN(CCN(Cc2nccc3c2[nH]c2ccccc23)C2CCCc3cccnc32)CC1` (stereo not drawn) the IC50 was 10000 nM. Molecule `c1cnc2c(c1)CCC[C@@H]2N(CCCN1CCNCC1)Cc1nccc2c3ccccc3n(CCN3CCOCC3)c12` has an IC50 of 24 nM. For `CC(C)CN(Cc1nccc2c3ccccc3n(CCCN3C(=O)c4ccccc4C3=O)c12)[C@H]1CCCc2cccnc21`, the IC50 was 6650 nM. In the case of `c1cnc2c(c1)CCC[C@@H]2N(CCCN1CCNCC1)Cc1nccc2c3ccccc3n(CCC3CCOCC3)c12`, the IC50 is reported as 1 nM. In the case of `Cn1c2ccccc2c2ccnc(CN(CCCCN)C3CCCc4cccnc43)c21` (stereo not drawn), the IC50 is reported as 10 nM. `NCCCCN(Cc1nccc2c3ccccc3n(Cc3ccncc3)c12)[C@H]1CCCc2cccnc21` was tested, and the IC50 was 120 nM. Molecule `CC(c1ccccn1)N(CCCCN)Cc1nccc2c3ccccc3n(CC(=O)N3CCOCC3)c12` (stereo not drawn) has an IC50 of 423 nM. `NCCCCN(Cc1cc2c(cn1)[nH]c1ccccc12)[C@@H]1CCCc2cccnc21` was tested, and the IC50 was 1180 nM. `NCCCCN(Cc1cc2c(cn1)[nH]c1ccccc12)C1CCCc2cccnc21` (stereo not drawn) showed an IC50 of 69 nM. For `CC(C)(C)OC(=O)Cn1c2ccccc2c2cc(CN(CCCCN)[C@H]3CCCc4cccnc43)ncc21`, the IC50 was 949 nM. With `NCCCCN(Cc1nccc2c3ccccc3n(CC(=O)N3CCC(N)CC3)c12)[C@H]1CCCc2cccnc21` the IC50 was 4390 nM. For `NCCCCN(Cc1nccc2c3ccccc3n(Cc3ccccn3)c12)[C@H]1CCCc2cccnc21`, the IC50 was 31 nM. For `CC(C)(C)OC(=O)Cn1c2ccccc2c2ccnc(CN(CCCN3CCNCC3)[C@H]3CCCc4cccnc43)c21` [drawing 743], the IC50 was 59 nM. Molecule `CN(Cc1nccc2c3ccccc3n(CCN3C(=O)c4ccccc4C3=O)c12)[C@H]1CCCc2cccnc21` has an IC50 of 329 nM. `NCCCCN(Cc1nccc2c3ccccc3n(CC(=O)N3CCNCC3)c12)[C@H]1CCCc2cccnc21` gave an IC50 of 663 nM. With `CCNCCCCN(Cc1nccc2c1[nH]c1ccccc12)C1CCCc2cccnc21` (stereo not drawn) the IC50 was 168 nM. Work on `CCOC(=O)Cn1c2ccccc2c2ccnc(CN(CCCCN)[C@H]3CCCc4cccnc43)c21` yielded an IC50 of 15 nM. Work on `CN(Cc1nccc2c3ccccc3n(CCCN3C(=O)c4ccccc4C3=O)c12)[C@H]1CCCc2cccnc21` yielded an IC50 of 217 nM. `Cc1cccnc1CN(CCCCN)Cc1nccc2c3ccccc3n(CC(=O)N3CCOCC3)c12` showed an IC50 of 583 nM. Molecule `c1cnc2c(c1)CCC[C@@H]2N(CCCN1CCNCC1)Cc1nccc2c3ccccc3n(CC3CC3)c12` has an IC50 of 14 nM. `NCCCCN(Cc1nccc2c1[nH]c1cc(F)ccc12)C1CCCc2cccnc21` (stereo not drawn) gave an IC50 of 565 nM. `NCCCCN(Cc1nccc2c3ccccc3n(CCCN3CCNCC3)c12)[C@H]1CCCc2cccnc21` [drawing 723] was tested, and the IC50 was 15 nM. `O=C1CN(CCCN(Cc2nccc3c4ccccc4n(CC(=O)N4CCOCC4)c23)[C@H]2CCCc3cccnc32)CCN1` gave an IC50 of 8720 nM. Molecule `NC(=O)Cn1c2ccccc2c2ccnc(CN(CCCN3CCNCC3)[C@H]3CCCc4cccnc43)c21` has an IC50 of 9 nM. `CC(C)(C)OC(=O)Cn1c2ccccc2c2ccnc(CN[C@H]3CCCc4cccnc43)c21` showed an IC50 of 2810 nM. For `O=C(Cn1c2ccccc2c2ccnc(CN(CCCN3CCNCC3)[C@H]3CCCc4cccnc43)c21)N1CCOCC1`, the IC50 was 44 nM. With `c1cnc2c(c1)CCCC2N(CCCCNC1=NCCN1)Cc1nccc2c1[nH]c1ccccc12` (stereo not drawn) the IC50 was 1670 nM. Work on `NC/C=C\CN(Cc1nccc2c1[nH]c1ccccc12)[C@H]1CCCc2cccnc21` yielded an IC50 of 949 nM. For `O=C1CNCCN1CCCn1c2ccccc2c2ccnc(CN(CCCN3CCNCC3)[C@H]3CCCc4cccnc43)c21`, the IC50 was 44 nM. Molecule `c1cnc2c(c1)CCC[C@@H]2N(CCCN1CCNCC1)Cc1cc2c(cn1)[nH]c1ccccc12` has an IC50 of 331 nM. Work on `CC(=O)NCCCCN(Cc1nccc2c1[nH]c1ccccc12)C1CCCc2cccnc21` (stereo not drawn) yielded an IC50 of 1720 nM. Molecule `c1ccc(Cn2c3ccccc3c3ccnc(CN[C@H]4CCCc5cccnc54)c32)nc1` has an IC50 of 8390 nM. In the case of `CN(Cc1nccc2c3ccccc3n(CCN)c12)[C@H]1CCCc2cccnc21`, the IC50 is reported as 142 nM. In the case of `O=C(Cn1c2ccccc2c2ccnc(CN(CCCC3CCNCC3)[C@H]3CCCc4cccnc43)c21)N1CCOCC1`, the IC50 is reported as 124 nM. Molecule `c1cnc2c(c1)CCC[C@@H]2N(Cc1nccc2c1[nH]c1ccccc12)CC1CCCNC1` (stereo partly drawn) has an IC50 of 3600 nM. Work on `NCCCCN(Cc1ccccn1)Cc1nccc2c1[nH]c1ccccc12` yielded an IC50 of 1970 nM. For `CC(C)(C)OC(=O)Cn1c2ccccc2c2ccnc(CN(CCCCN)[C@H]3CCCc4cccnc43)c21`, the IC50 was 1 nM. Molecule `Cn1c2ccccc2c2ccnc(CN(CCCCN)[C@H]3CCCc4cccnc43)c21` has an IC50 of 22 nM. Molecule `O=C(O)Cn1c2ccccc2c2ccnc(CN(CCCN3CCNCC3)[C@H]3CCCc4cccnc43)c21` [drawing 753] has an IC50 of 135 nM. With `c1cnc2c(c1)CCCC2N(CCCCN1CCNCC1)Cc1nccc2c1[nH]c1ccccc12` (stereo not drawn) the IC50 was 1960 nM. `O=C1c2ccccc2C(=O)N1CCCn1c2ccccc2c2ccnc(CN(CCCN3CCNCC3)[C@H]3CCCc4cccnc43)c21` showed an IC50 of 44 nM. Molecule `NCCCCN(Cc1nccc2c3ccccc3n(Cc3cccnc3)c12)[C@H]1CCCc2cccnc21` has an IC50 of 481 nM. `O=C(Cn1c2ccccc2c2ccnc(CN(CCCCNCc3ccccn3)[C@H]3CCCc4cccnc43)c21)N1CCOCC1` gave an IC50 of 8650 nM. `Cn1c(CN(CCCCN)C2CCCc3cccnc32)nnc1-c1ccccc1` (stereo not drawn) showed an IC50 of 3200 nM. In the case of `NCCCCN(Cc1nccc2c3ccccc3n(CC(=O)NC3CCOCC3)c12)[C@H]1CCCc2cccnc21`, the IC50 is reported as 21 nM. For `NCCCCN(Cc1nccc2c3ccccc3n(CC(N)=O)c12)[C@H]1CCCc2cccnc21` [drawing 765], the IC50 was 17 nM. Molecule `O=C(CN(Cc1nccc2c1[nH]c1ccccc12)[C@H]1CCCc2cccnc21)N1CCNCC1` has an IC50 of 1810 nM. In the case of `NCCCCN(Cc1nccc2c3ccccc3n(CCCN)c12)[C@H]1CCCc2cccnc21` [drawing 748], the IC50 is reported as 21 nM. With `O=C1CN(CCCN(Cc2nccc3c4ccccc4n(CCCN4C(=O)c5ccccc5C4=O)c23)[C@H]2CCCc3cccnc32)CCN1` the IC50 was 138 nM. With `C#CCn1c2ccccc2c2ccnc(CN(CCCCN)[C@H]3CCCc4cccnc43)c21` the IC50 was 9 nM. Molecule `CC(C)(C)OC(=O)[C@@H](N)CCCN(Cc1nccc2c1[nH]c1ccccc12)[C@H]1CCCc2cccnc21` has an IC50 of 9580 nM. In the case of `CCN(Cc1nccc2c3ccccc3n(CCCN)c12)[C@H]1CCCc2cccnc21`, the IC50 is reported as 997 nM. Molecule `CCNCCCCN(Cc1nccc2c1[nH]c1ccccc12)[C@H]1CCCc2cccnc21` has an IC50 of 699 nM. For `CN1CCN(C(=O)Cn2c3ccccc3c3ccnc(CN(CCCCN)[C@H]4CCCc5cccnc54)c32)CC1` [drawing 725], the IC50 was 30 nM. For `c1cnc2c(c1)CCCC2N(CCCCNCC1CC1)Cc1nccc2c1[nH]c1ccccc12` (stereo not drawn), the IC50 was 729 nM. In the case of `O=C(Cn1c2ccccc2c2ccnc(CN(CCCN3CCNCC3)[C@H]3CCCc4cccnc43)c21)NC1CCOCC1`, the IC50 is reported as 26 nM. In the case of `N[C@H]1CC[C@@H](CN(Cc2nccc3c4ccccc4n(CC(=O)N4CCOCC4)c23)[C@H]2CCCc3cccnc32)CC1`, the IC50 is reported as 1260 nM. Work on `C[C@@H]1CN(C(=O)Cn2c3ccccc3c3ccnc(CN(CCCCN)[C@H]4CCCc5cccnc54)c32)C[C@H](C)O1` [drawing 744] yielded an IC50 of 123 nM. Work on `NCCCCN(Cc1nccc2c3ccccc3n(CC(=O)N3CCSCC3)c12)[C@H]1CCCc2cccnc21` yielded an IC50 of 78 nM. `c1ccc(N2CCNCC2)c(CN(Cc2nccc3c2[nH]c2ccccc23)[C@H]2CCCc3cccnc32)c1` showed an IC50 of 3730 nM.
